Experimental data reported in patent US6927233B1, “5ht2 agonists for controlling IOP and treating glaucoma” (Alcon, Inc., priority 2000, dated 2005).

Tested on: lasered monkey model of ocular hypertension
Assay: IOP response in the lasered monkey model of ocular hypertension
Assay type: in vivo, cynomolgus monkeys
Settings: for IOP Response % Change, 1 hr / IOP decrease from baseline (mmHg) / IOP Response % Change, 3 hr / IOP Response % Change, 6 hr: 300 μg topical, one 30 μL aliquot to right (lasered) eye, change from baseline IOP; for effect on IOP (in words): dosed at 300 μg, lasered monkey model of ocular hypertension
Protocol: Intraocular pressure was determined with an Alcon Pneumatonometer after light corneal anesthesia with 0.1% proparacaine. Eyes were washed with saline after-each measurement. After a baseline IOP measurement, test compound was instilled in one 30 μL aliquot to the right eyes only of nine cynomolgus monkeys. Vehicle was instilled in the right eyes of six additional animals. Subsequent IOP measurements were taken at 1, 3, and 6 hours. A compound is considered efficacious in this model of ocular hypertension if there is a decrease in the baseline IOP of the lasered eye (O.D.) of at least 20% following topical administration.

In the case of `CC(N)Cn1ncc2ccc(O)cc21` (single isomer, unassigned; isomer 1) [S-(+)-isomer, 1-(2-aminopropyl)-indazol-6-ol], the “IOP Response % Change, 1 hr” value (1 hr after dosing) is reported as −15.0%, the “IOP decrease from baseline (mmHg)” value (1 hr after dosing) is reported as 6.4 mmHg and the “IOP Response % Change, 3 hr” value (3 hr after dosing) is reported as −35.3%. For the same molecule, the “IOP decrease from baseline (mmHg)” value (3 hr after dosing) was 14.8 mmHg, the “IOP Response % Change, 6 hr” value (6 hr after dosing) was −40.8% and the “IOP decrease from baseline (mmHg)” value (6 hr after dosing) was 17.1 mmHg. For the same molecule, the “effect on IOP (in words)” value was “significant decrease in IOP”.
In the case of `CC(N)Cn1ncc2ccc(O)cc21` (centres unmarked) [Compound, 1-(2-aminopropyl)-indazol-6-ol], the “IOP Response % Change, 1 hr” value (1 hr after dosing) is reported as −17.6%, the “IOP decrease from baseline (mmHg)” value (1 hr after dosing) is reported as 7.3 mmHg and the “IOP Response % Change, 3 hr” value (3 hr after dosing) is reported as −28.1%. The “IOP decrease from baseline (mmHg)” value (3 hr after dosing) was 11.8 mmHg, the “IOP Response % Change, 6 hr” value (6 hr after dosing) was −33.8% and the “IOP decrease from baseline (mmHg)” value (6 hr after dosing) was 14.6 mmHg. The “effect on IOP (in words)” value was “significant decrease in IOP”.
